Conditions: in water

NCCS(=O)(=O)O
Conditions	solubility (mole fraction)
278.05 K	0.00796
281.25 K	0.00932
288.75 K	0.0119
289.85 K	0.0128
298.15 K	0.017
305.35 K	0.0203
308.25 K	0.0213
310.95 K	0.0233
314.85 K	0.0261
318.35 K	0.0291
321.55 K	0.0321
331.75 K	0.0403
340.95 K	0.0477
345.15 K	0.0526
350.25 K	0.0585
353.55 K	0.0646

Reference: BigSolDB 2.1
